Experimental data taken from article PMC6001375, “CLERK is a novel receptor kinase required for sensing of root-active CLE peptides in Arabidopsis” (Development (Cambridge, England), 2018).

Test system: root meristem protophloem
Experiment: Protophloem development / CVP2::NLS-VENUS marker in root meristem
Type: in vivo, Arabidopsis thaliana
Details: clerk mutant roots, CLE26 treatment; n=18-30 (Fig. 5D)
Description: Fig. 5. CLERK prevents premature expression of a protophloem marker. (A) Schematic presentation of the protophloem sieve element lineage in the Arabidopsis root meristem. Red asterisk, pericycle cell file; dark-blue asterisk, protophloem sieve element cell file; light-blue asterisk, incipient metaphloem cell file; arrowheads indicate the two periclinal divisions. […] Left: VENUS fluorescence, yellow. Right: overlay of VENUS fluorescence with PI cell wall staining (cyan). Asterisk indicates protophloem sieve element cell file. (D) Quantification of protophloem strand presence/absence in root meristems of a Col-0 wild type or clerk mutant upon CLE26 treatment. Statistically significant differences when compared with mock control are indicated by letters ([…], P<0.001; n=18-30). […] (G) Distance between first detectable CVP2 expression and the quiescent center (QC) in Col-0 wild type and clerk mutants, expressed as cell number. […] (H) Distance between first detectable CVP2 expression and the quiescent center (QC) in Col-0 wild type and clerk mutants, expressed as absolute distance. […] (J) Quantification of cell file number in Col-0 wild type or clerk mutants, counted at the level where protoxylem has differentiated. […] Left: VENUS fluorescence, yellow; Right: overlay of VENUS fluorescence with PI cell wall staining (cyan). […]

**Q.** For RKVPRGPDPIHN [CLE26], which “Protophloem development in clerk mutants” value is on record?
**A.** maintained protophloem development
